The values that follow come from patent publication US8435928B2, “Herbicidal composition” (Ishihara Sangyo Kaisha, Ltd., priority 2007, dated 2013).

Experiment [1] has as its system crabgrass. Nature of the experiment: Test Example 7: foliar application of compound No. 2-1 wettable powder with surfactant, crabgrass. Format: in vivo, Digitaria sanguinalis L. Particulars: 15 g a.i./ha wettable powder, 21st day. From the text: (§1) On the 21st day after the application, the state of growth of the plants was visually observed (growth inhibition rate (%)=0 (the same as the untreated plot) to 100 (complete kill)), and the results as shown in Tables b1 and b2 were obtained.
(§2) Upland field soil was put into a 1/1,000,000 ha pot, and seeds of crabgrass were sown and grown in a greenhouse. When crabgrass reached 4.0 to 5.0 leaf stage, a prescribed amount (15 g a.i./ha) of a wettable powder comprising compound No. 2-1 as an active ingredient, prepared in accordance with the above Example 1, was diluted with water corresponding to 300 L/ha (containing 0.05 vol % of a surfactant containing the POA alkyl ether phosphate), followed by foliar application. Further, for comparison, foliar application was carried out in the same manner by using a silicon surfactant (tradename: SILWETT L-77) at a concentration of 0.1 vol % instead of the above surfactant.
On the 21st day after the application, the state of growth of the plant was evaluated in the same manner as in Test Example 1, and the results as shown in Table b10 were obtained.

Experiment [2] has as its system crabgrass. As to the kind of experiment: Test Example 8: foliar application of compound No. 2-6 wettable powder with surfactant, crabgrass. Format: in vivo, Digitaria sanguinalis L. Particulars: 15 g a.i./ha wettable powder, 21st day.
Text: as §1
(§3) Upland field soil was put into a 1/1,000,000 ha pot, and seeds of bamyardgrass (Echinochloa crus-galli L) and crabgrass were respectively sown and grown in a greenhouse. When barnyardgrass reached 4.0 to 4.5 leaf stage and crabgrass reached 4.0 to 5.0 leaf stage, a prescribed amount (15 g a.i./ha) of a wettable powder comprising compound No. 2-6 as an active ingredient, prepared in accordance with the above Example 1, was diluted with water corresponding to 300 L/ha (containing 0.05 vol % of a surfactant containing the POA alkyl ether phosphate), followed by foliar application. Further, for comparison, foliar application was carried out in the same manner by using SILWETT L-77 (tradename.) at a concentration of 0.1 vol % instead of the above surfactant.
(§4) On the 21st day after the application, the state of growth of the plants was evaluated in the same manner as in Test Example 1, and the results as shown in Tables b11 and b12 were obtained.

Experiment [3] relates to bamyardgrass (Echinochloa crus-galli L). As to the kind of experiment: Test Example 8: foliar application of compound No. 2-6 wettable powder with surfactant, barnyardgrass. The experiment is classed as in vivo. The conditions noted are these: 15 g a.i./ha wettable powder, 21st day.
Text: as §1, §3, §4

For experiment [4], the system named is crabgrass. Nature of the experiment: Test Example 10: foliar application of compound No. 2-185 wettable powder with surfactant, crabgrass. The conditions noted are these: 15 g a.i./ha wettable powder, 21st day. The experiment is classed as in vivo, Digitaria sanguinalis L.
Text: as §1, §3, §4
The results as shown in Tables b14 and b15 were obtained in the same manner as in the above Test Example 8 except that a prescribed amount (15 g a.i./ha) of a wettable powder comprising compound No. 2-185 as an active ingredient, prepared in accordance with the above Example 1, was used.

Experiment [5] deals with bamyardgrass (Echinochloa crus-galli L). Nature of the experiment: Test Example 10: foliar application of compound No. 2-185 wettable powder with surfactant, barnyardgrass. The experiment is classed as in vivo. Particulars: 15 g a.i./ha wettable powder, 21st day.
Text: as §1, §3
On the 21st day after the application, the state of growth of the plants was evaluated in the same manner as in Test Example 1, and the results as shown in Tables b11 and b12 were obtained. […]

Another experiment has as its system barnyardgrass. Nature of the experiment: Test Example 13: foliar application of compound No. 5-1 wettable powder with surfactant, barnyardgrass. Format: in vivo, Echinochloa crus-galli L. Particulars: 31 g a.i./ha wettable powder, 21st day.
Text: as §1
as §3, with “bamyardgrass” for “bamyardgrass (Echinochloa crus-galli L) and crabgrass”, “were” for “were respectively”, “leaf” for “leaf stage and crabgrass reached 4.0 to 5.0 leaf”, “(31” for “(15”, “5-1” for “2-6”, “(tradename)” for “(tradename.)”
On the 21st day after the application, the state of growth of the plant was evaluated in the same manner as in Test Example 1, and the results as shown in Table b18 were obtained.

Experiment [6] has as its system crabgrass. As to the kind of experiment: Test Example 5: foliar application of compound No. 3-31 wettable powder with surfactant, crabgrass. The experiment is classed as in vivo, Digitaria sanguinalis L. The conditions noted are these: foliar application at 4.5 to 5.0 leaf stage, visual, 21st day, 0 = same as untreated, 100 = complete kill.
Text: as §1
Upland field soil was put into a 1/1,000,000 ha pot, and seeds of crabgrass were sown and grown in a greenhouse. When crabgrass reached 4.5 to 5.0 leaf stage, a prescribed amount (30 g a.i./ha) of a water-based suspension concentrate comprising compound No. 238 as an active ingredient, prepared in accordance with the above Example 6, was diluted with water corresponding to 300 L/ha (containing 0.05 vol % of a surfactant containing the POA alkyl ether phosphate), followed by foliar application. Further, for comparison, foliar application was carried out in the same manner by using CITOWETT (tradename) at a concentration of 0.3 vol %, instead of the above surfactant.
On the 21st day after the application, the state of growth of the plant was evaluated in the same manner as in Test Example 1, and the results as shown in Table b5 were obtained.
The results as shown in Table b8 were obtained in the same manner as in the above Test Example 3 except that a prescribed amount (60 g a.i./ha) of a wettable powder comprising compound No. 3-31 as an active ingredient, prepared in accordance with the above Example 5, was used.

In experiment [7] the test system is crabgrass. Nature of the experiment: Test Example 12: foliar application of compound No. 4-320 wettable powder with surfactant, crabgrass. Particulars: 15 g a.i./ha wettable powder, 21st day. The experiment is classed as in vivo, Digitaria sanguinalis L.
Text: as §1
as §2, with “4-3” for “2-1”, “using” for “using a silicon surfactant (tradename:”, “L-77 (tradename)” for “L-77)”
On the 21st day after the application, the state of growth of the plant was evaluated in the same manner as in Test Example 1, and the results as shown in Table b16 were obtained.
The results as shown in Tables b17 were obtained in the same manner as in the above Test Example 11 except that a prescribed amount (15 g a.i./ha) of a wettable powder comprising compound No. 4-320 as an active ingredient, prepared in accordance with the above Example 1, was used.

Where [8] appears, read: surfactant PHOSPHANOL RS-710 0.05 vol %, present invention.
[9] abbreviates: surfactant PLYSURF A219B 0.05 vol %, present invention.
[10] abbreviates: surfactant SILWETT L-77 0.1 vol %, comparison.
Where [11] appears, read: surfactant ADECA COL PS-440E 0.05 vol %, present invention.
The mark [12] stands for this setting: surfactant NIKKOL DDP-8 0.05 vol %, present invention.
Setting [13] is: surfactant NIKKOL TDP-8 0.05 vol %, present invention.
Where [14] appears, read: surfactant PHOSPHANOL ML-240 0.05 vol %, present invention.
Setting [15] is: surfactant PHOSPHOLAN PS-236 0.05 vol %, present invention.

Consider `COC(=O)c1c(S(C)(=O)=O)ccc(C(=O)c2cnn(C)c2O)c1C` [2-1], for which the “Growth inhibition rate (%) of crabgrass” value is 75% with crabgrass [1] (setting [8]), 70% in the experiment on crabgrass [1] (setting [9]) and 10% in the experiment on crabgrass [1] (setting [10]).
For the compound `CCn1ncc(C(=O)c2ccc(S(C)(=O)=O)c(OCCOC)c2C)c1O` [2-6], the “Growth inhibition rate (%) of crabgrass” value was found to be 75% with crabgrass [2] (setting [11]); 70% in the experiment on crabgrass [2] (setting [12]); 73% in the experiment on crabgrass [2] (setting [13]); 85% with crabgrass [2] (setting [14]); 70% with crabgrass [2] (setting [8]); 78% in the experiment with crabgrass [2] (setting [9]). Besides, the “Growth inhibition rate (%) of crabgrass” value in the experiment with crabgrass [2] (setting [10]) came to 40%. For the same compound, the “Growth inhibition rate (%) of barnyardgrass” value in experiment [3] (setting [15]) was determined as 95%; in experiment [3] (setting [10]), 10%.
As to `COCc1c(S(C)(=O)=O)ccc(C(=O)c2cnn(C)c2O)c1C` [2-185], the “Growth inhibition rate (%) of crabgrass” value in the experiment on crabgrass [4] (setting [12]) was found to be 70%; with crabgrass [4] (setting [13]), 70%; in the experiment with crabgrass [4] (setting [14]), 70%; in the experiment on crabgrass [4] (setting [8]), 73%; in the experiment on crabgrass [4] (setting [9]) it was 70%; in the experiment with crabgrass [4] (setting [10]), 20%. The figures for the “Growth inhibition rate (%) of barnyardgrass” value in experiment [5] (setting [15]) and in experiment [5] (setting [10]) were 80% and 0%, respectively.
As for `COCCOCc1nc(C(F)(F)F)ccc1C(=O)C1C(=O)C2CCC(C2)C1=O` (stereo not drawn) [5-1], the “Growth inhibition rate (%) of barnyardgrass” value in the experiment with barnyardgrass (setting [11]) is 85%; with barnyardgrass (setting [10]), 70%.
In the case of `CS(=O)(=O)c1ccc(C(=O)C2C(=O)CCCC2=O)c(Cl)c1COCC(F)(F)F` [Compound No. 3-31], the “Growth inhibition rate (%) of crabgrass” value with crabgrass [6] (comparison: 60 g a.i./ha wettable powder in 300 L/ha water with surfactant CITOWETT 0.3 vol %) turned out to be 20%; in the experiment on crabgrass [6] (the present invention: 60 g a.i./ha wettable powder in 300 L/ha water with surfactant NIKKOL DDP-8 0.05 vol %) it was 80%.
For `CCn1ncc(C(=O)c2ccc(S(C)(=O)=O)c(OCCOC)c2C)c1OC(C)OC(=O)OC` (stereo not drawn) [Compound No. 4-320, 1-(1-ethyl-4-(3-(2-methoxyethoxy)-2-methyl-4-(methylsulfonyl)benzoyl)-1H-pyrazol-5-yloxy)ethyl methyl carbonate], the “Growth inhibition rate (%) of crabgrass” value in the experiment on crabgrass [7] (setting [12]) is 90%; in the experiment on crabgrass [7] (setting [15]) it was 90%; with crabgrass [7] (setting [10]) it was 88%.
